Source: US6548052B2, “Antibacterial deodorizing compositions” (Innoscent Ltd., priority 1997, dated 2003)

Legend:
C. xerosis = assay: Inhibition test: samples applied onto bacterial lawns, growth inhibition zone; assay type: cell-based, Corynebacterium xerosis
Protocol: (§1) The Extraction Process: […] The mixture was vortexed for 10 min and the samples were centrifuged for 30 min at 10000 rpm. The supernatant was collected and referred to as the extract. The extract was then filtered through a 0.22 or a 0.45 μm filter. Inhibition Test: The antimicrobial activity of the various extracts was examined by applying samples (5 μl) onto lawns of axillary bacteria. Following incubation of 24 hours at 37° C., inhibition was determined by measuring the diameter of the growth inhibition zone (in cm). In the tables, “+” indicates full growth inhibition(transparent zone), “−” indicates lack of inhibition, and “+/−” indicates partial inhibition (translucent zone). For the purposes of comparative testing, 5 μl aliquots of either red or black henna extracts (20% w/v in 20% v/v ethanol) are applied to the bacterial lawns.

S. epidermidis = assay: as above; assay type: cell-based; conditions: for inhibition of S. epidermidis (in words): solvents in water, Table III
Protocol: as §1

Streptococcus aureus = conditions: Handbook of Medicinal Herbs; cited from earlier work
oral species = conditions: Didry et al. 1994; cited from earlier work

O=C1C=CC(=O)c2ccccc21 [1,4-naphthoquinone]
−: Inhibition of C. xerosis (C. xerosis; 0.01% in ethanol 20%) | Inhibition of C. xerosis (C. xerosis; 0.02% in ethanol 20%) | Inhibition of S. epidermidis (S. epidermidis; 0.01% in ethanol 20%) | Inhibition of S. epidermidis (S. epidermidis; 0.02% in ethanol 20%)
+: Inhibition of C. xerosis (C. xerosis; 0.2% in ethanol 20%) | Inhibition of S. epidermidis (S. epidermidis; 0.2% in ethanol 20%)
1.4 cm: Inhibition of S. epidermidis, zone diameter (S. epidermidis; 0.2% in ethanol 20%)
inhibits the growth: growth inhibition of C. xerosis (in words) (C. xerosis; comment on Table I) | growth inhibition of S. epidermidis (in words) (S. epidermidis; comment on Table I)
0.8 cm: Inhibition of C. xerosis, zone diameter (C. xerosis; 0.2% in ethanol 20%)

CCO [ETHANOL, ethanol]
1.1 cm: Inhibition of C. xerosis, zone diameter (C. xerosis; solvent content 90%)
+/−: Inhibition of C. xerosis (C. xerosis; solvent content 40%) | Inhibition of C. xerosis (C. xerosis; solvent content 45%) | Inhibition of C. xerosis (C. xerosis; solvent content 50%) | Inhibition of C. xerosis (C. xerosis; solvent content 55%) | Inhibition of C. xerosis (C. xerosis; solvent content 60%) | Inhibition of C. xerosis (C. xerosis; solvent content 65%) | Inhibition of C. xerosis (C. xerosis; solvent content 70%) | Inhibition of C. xerosis (C. xerosis; solvent content 75%) | Inhibition of C. xerosis (C. xerosis; solvent content 80%)
1.3 cm: Inhibition of C. xerosis, zone diameter (C. xerosis; solvent content 100%)
0.2 cm: Inhibition of C. xerosis, zone diameter (C. xerosis; solvent content 40%) | Inhibition of C. xerosis, zone diameter (C. xerosis; solvent content 45%)
+: Inhibition of C. xerosis (C. xerosis; solvent content 90%) | Inhibition of C. xerosis (C. xerosis; solvent content 100%)
no inhibition: inhibition of S. epidermidis (in words) (S. epidermidis)
−: Inhibition of C. xerosis (C. xerosis; solvent content 5%) | Inhibition of C. xerosis (C. xerosis; solvent content 10%) | Inhibition of C. xerosis (C. xerosis; solvent content 15%) | Inhibition of C. xerosis (C. xerosis; solvent content 20%) | Inhibition of C. xerosis (C. xerosis; solvent content 25%) | Inhibition of C. xerosis (C. xerosis; solvent content 30%) | Inhibition of C. xerosis (C. xerosis; solvent content 35%) | Inhibition of S. epidermidis (S. epidermidis; solvent content 5%) | Inhibition of S. epidermidis (S. epidermidis; solvent content 10%) | Inhibition of S. epidermidis (S. epidermidis; solvent content 15%) | Inhibition of S. epidermidis (S. epidermidis; solvent content 20%) | Inhibition of S. epidermidis (S. epidermidis; solvent content 25%) | Inhibition of S. epidermidis (S. epidermidis; solvent content 30%) | Inhibition of S. epidermidis (S. epidermidis; solvent content 35%) | Inhibition of S. epidermidis (S. epidermidis; solvent content 40%) | Inhibition of S. epidermidis (S. epidermidis; solvent content 45%) | Inhibition of S. epidermidis (S. epidermidis; solvent content 50%) | Inhibition of S. epidermidis (S. epidermidis; solvent content 55%) | Inhibition of S. epidermidis (S. epidermidis; solvent content 60%) | Inhibition of S. epidermidis (S. epidermidis; solvent content 65%) | Inhibition of S. epidermidis (S. epidermidis; solvent content 70%) | Inhibition of S. epidermidis (S. epidermidis; solvent content 75%) | Inhibition of S. epidermidis (S. epidermidis; solvent content 80%) | Inhibition of S. epidermidis (S. epidermidis; solvent content 90%) | Inhibition of S. epidermidis (S. epidermidis; solvent content 100%)
some inhibition: inhibition of C. xerosis (in words) (C. xerosis; above 40% (v/v) in water)
0.6 cm: Inhibition of C. xerosis, zone diameter (C. xerosis; solvent content 50%) | Inhibition of C. xerosis, zone diameter (C. xerosis; solvent content 55%)
0.8 cm: Inhibition of C. xerosis, zone diameter (C. xerosis; solvent content 60%) | Inhibition of C. xerosis, zone diameter (C. xerosis; solvent content 65%) | Inhibition of C. xerosis, zone diameter (C. xerosis; solvent content 70%) | Inhibition of C. xerosis, zone diameter (C. xerosis; solvent content 75%) | Inhibition of C. xerosis, zone diameter (C. xerosis; solvent content 80%)

CO [METHANOL, methanol]
+/−: Inhibition of C. xerosis (C. xerosis; solvent content 45%) | Inhibition of C. xerosis (C. xerosis; solvent content 50%) | Inhibition of C. xerosis (C. xerosis; solvent content 55%) | Inhibition of C. xerosis (C. xerosis; solvent content 60%) | Inhibition of C. xerosis (C. xerosis; solvent content 65%) | Inhibition of C. xerosis (C. xerosis; solvent content 70%) | Inhibition of C. xerosis (C. xerosis; solvent content 75%) | Inhibition of C. xerosis (C. xerosis; solvent content 80%) | Inhibition of C. xerosis (C. xerosis; solvent content 90%) | Inhibition of C. xerosis (C. xerosis; solvent content 100%)
0.8 cm: Inhibition of C. xerosis, zone diameter (C. xerosis; solvent content 60%) | Inhibition of C. xerosis, zone diameter (C. xerosis; solvent content 65%) | Inhibition of C. xerosis, zone diameter (C. xerosis; solvent content 70%) | Inhibition of C. xerosis, zone diameter (C. xerosis; solvent content 75%) | Inhibition of C. xerosis, zone diameter (C. xerosis; solvent content 80%) | Inhibition of C. xerosis, zone diameter (C. xerosis; solvent content 90%) | Inhibition of C. xerosis, zone diameter (C. xerosis; solvent content 100%)
no inhibition: inhibition of S. epidermidis (in words) (S. epidermidis)
some inhibition: inhibition of C. xerosis (in words) (C. xerosis; above 45%)
−: Inhibition of C. xerosis (C. xerosis; solvent content 5%) | Inhibition of C. xerosis (C. xerosis; solvent content 10%) | Inhibition of C. xerosis (C. xerosis; solvent content 15%) | Inhibition of C. xerosis (C. xerosis; solvent content 20%) | Inhibition of C. xerosis (C. xerosis; solvent content 25%) | Inhibition of C. xerosis (C. xerosis; solvent content 30%) | Inhibition of C. xerosis (C. xerosis; solvent content 35%) | Inhibition of C. xerosis (C. xerosis; solvent content 40%) | Inhibition of S. epidermidis (S. epidermidis; solvent content 5%) | Inhibition of S. epidermidis (S. epidermidis; solvent content 10%) | Inhibition of S. epidermidis (S. epidermidis; solvent content 15%) | Inhibition of S. epidermidis (S. epidermidis; solvent content 20%) | Inhibition of S. epidermidis (S. epidermidis; solvent content 25%) | Inhibition of S. epidermidis (S. epidermidis; solvent content 30%) | Inhibition of S. epidermidis (S. epidermidis; solvent content 35%) | Inhibition of S. epidermidis (S. epidermidis; solvent content 40%) | Inhibition of S. epidermidis (S. epidermidis; solvent content 45%) | Inhibition of S. epidermidis (S. epidermidis; solvent content 50%) | Inhibition of S. epidermidis (S. epidermidis; solvent content 55%) | Inhibition of S. epidermidis (S. epidermidis; solvent content 60%) | Inhibition of S. epidermidis (S. epidermidis; solvent content 65%) | Inhibition of S. epidermidis (S. epidermidis; solvent content 70%) | Inhibition of S. epidermidis (S. epidermidis; solvent content 75%) | Inhibition of S. epidermidis (S. epidermidis; solvent content 80%) | Inhibition of S. epidermidis (S. epidermidis; solvent content 90%) | Inhibition of S. epidermidis (S. epidermidis; solvent content 100%)

O=C(O)c1cc(O)c(O)c(O)c1 [gallic acid]
slightly: inhibition of “Streptococcus aureus” (Streptococcus aureus)
+/−: Inhibition of S. epidermidis (S. epidermidis; 0.4% in ethanol 20%)
−: Inhibition of C. xerosis (C. xerosis; 0.2% in ethanol 20%) | Inhibition of C. xerosis (C. xerosis; 0.4% in ethanol 20%) | Inhibition of S. epidermidis (S. epidermidis; 0.2% in ethanol 20%)

O=C1C=C(O)C(=O)c2ccccc21 [lawsone]
antibacterial activity: antibacterial activity against oral species (oral species)
−: Inhibition of C. xerosis (C. xerosis; 0.01% in ethanol 20%) | Inhibition of C. xerosis (C. xerosis; 0.02% in ethanol 20%) | Inhibition of C. xerosis (C. xerosis; 0.2% in ethanol 20%) | Inhibition of C. xerosis (C. xerosis; 1.0% in ethanol 50%) | Inhibition of C. xerosis (C. xerosis; 1.0% in ethanol 100%) | Inhibition of C. xerosis (C. xerosis; 1.0% in hot water) | Inhibition of S. epidermidis (S. epidermidis; 0.01% in ethanol 20%) | Inhibition of S. epidermidis (S. epidermidis; 0.02% in ethanol 20%) | Inhibition of S. epidermidis (S. epidermidis; 0.2% in ethanol 20%) | Inhibition of S. epidermidis (S. epidermidis; 1.0% in ethanol 50%) | Inhibition of S. epidermidis (S. epidermidis; 1.0% in ethanol 100%) | Inhibition of S. epidermidis (S. epidermidis; 1.0% in hot water)
